Experimental data: patent publication US4493785A, “Anthraquinone compounds” (Imperial Chemical Industries PLC, priority 1982, dated 1985)

Columns and labels:
Type in all cases: physicochemical
[1] = Order parameter (S) of the dye in liquid crystal material; conditions: for Order Parameter (S): liquid crystal material E 43, 20° C.
Protocol: (§1) (i) Order parameters, solubilities and stabilities reported in Tables I to V were measured in the liquid crystal material, E 43, which is referred to as Host B in UK Specification No. 2081736A and is available from BDH Ltd of Poole, Dorset. Measurements were made at 20° C. unless otherwise indicated.
(§2) (iii) The liquid crystal materials in Table V are:
(§3) ZLI 1695: Available from E. Merck Co, Darmstadt, W. Germany;
(§4) FBCO Ester: Host 12 of UK application No. 8205153.
(§5) (iv) In Table V "S" means order parameter and "Sol" means solubility (wt %) in the appropriate liquid crystal material.

[2] = Solubility (wt %) of the dye in liquid crystal material; conditions: for Solubility: liquid crystal material E 43, 20° C.
Protocol: as §1, §2, §3, §4, §5

Extinction coefficient = assay: Extinction coefficient
[3] = Stability to irradiation with 1 kW phosphor-coated mercury vapour lamp; conditions: E 43, 1 kW mercury vapour lamp, 30° C.
Protocol: as §1
(ii) Stabilities were measured as the percentage decrease in absorption at the absorption maximum after the indicated period of irradiation with a 1 kW phosphor-coated, mercury vapour lamp at 30° C.

[4] = liquid crystal material FBCO Ester, 20° C.
[5] = liquid crystal material ZLI 1132, 20° C.
[6] = liquid crystal material ZLI 1695, 20° C.

CNc1cc(CC(C)C)c(O)c2c1C(=O)c1c(N)cc(CC(C)C)c(O)c1C2=O [iso-propyl, Comparative Dye, TABLE II]
Order Parameter (S) [1]: 0.63

CCCCCCCc1cc(NC)c2c(c1O)C(=O)c1c(O)c(CCCCCCC)cc(NC)c1C2=O [Example 5c, 2,7-di-n-heptyl-4,5-di(methylamino)chrysazin]
Order Parameter (S) [1]: 0.67
Solubility [2]: 0.5 wt %
extinction coefficient (Extinction coefficient; at 575 nm): 22,100

CCCCCCCc1cc(N)c2c(c1O)C(=O)c1c(O)c(CCCCCCC)cc(NC)c1C2=O [Example 5b, 2,7-di-n-heptyl-4-amino-5-methylaminochrysazin]
Order Parameter (S) [1]: 0.68
Solubility [2]: 0.5 wt %
extinction coefficient (Extinction coefficient; at 675 nm): 19,522

CNc1cc(CC(C)C)c(O)c2c1C(=O)c1c(NC)cc(CC(C)C)c(O)c1C2=O [iso-propyl, Comparative Dye, TABLE III]
Order Parameter (S) [1]: 0.54

CCCCCc1cc(N)c2c(c1O)C(=O)c1c(O)c(CCCCC)cc(NC)c1C2=O [Example 6b]
Order Parameter (S) [1]: 0.72
Solubility [2]: 3.3 wt %
extinction coefficient (Extinction coefficient; at 675 nm): 23,785

CCCCCCCc1cc(N)c2c(c1O)C(=O)c1c(O)c(CCCCCCC)cc(N)c1C2=O [Example 2c, 2,7-Di-n-heptyl-4,5-diaminochrysazin]
Order Parameter (S) [1]: 0.78
S (order parameter) [1, 4]: 0.70
S (order parameter) [1, 5]: 0.78
S (order parameter) [1, 6]: 0.80
Solubility [2]: 5.5 wt %
Sol (solubility) [2, 4]: 3 wt %
Sol (solubility) [2, 5]: 7.0 wt %
Stability (percentage decrease in absorption at the absorption maximum) ([3]; 400 hr irradiation): 92%
Stability (percentage decrease in absorption at the absorption maximum) ([3]; 2000 hr irradiation): 87%

CCCCCc1cc(N)c2c(c1O)C(=O)c1c(O)c(CCCCC)cc(N)c1C2=O [Example 1c, 2,7-Di-n-pentyl-4,5-diamino-chrysazin]
Order Parameter (S) [1]: 0.77
S (order parameter) [1, 4]: 0.69
S (order parameter) [1, 5]: 0.77
S (order parameter) [1, 6]: 0.79
Solubility [2]: 8.0 wt %
Sol (solubility) [2, 4]: 3 wt %
Sol (solubility) [2, 5]: 10.0 wt %
Sol (solubility) [2, 6]: 6.5 wt %
Stability (percentage decrease in absorption at the absorption maximum) ([3]; 100 hr irradiation): 97%
Stability (percentage decrease in absorption at the absorption maximum) ([3]; 2000 hr irradiation): 73%

CCC(C)Cc1cc(N)c2c(c1O)C(=O)c1c(O)c(CC(C)CC)cc(N)c1C2=O (centres unmarked) [--CH(CH3)CH2 CH3]
Order Parameter (S) [1]: 0.68

CCC(CC)Cc1cc(N)c2c(c1O)C(=O)c1c(O)c(CC(CC)CC)cc(N)c1C2=O [--CH(C2 H5)2]
Order Parameter (S) [1]: 0.66

CC(CCCc1cc(N)c2c(c1O)C(=O)c1c(O)c(CCCC(C)CC(C)(C)C)cc(N)c1C2=O)CC(C)(C)C (centres unmarked) [--C2 H4 CH(CH3)CH2 C(CH3)3, reference compound]
Order Parameter (S) [1]: 0.71
Solubility [2]: 1.6 wt %

CCCCCCCCc1cc(N)c2c(c1O)C(=O)c1c(O)c(CCCCCCCC)cc(N)c1C2=O [Example 4, 2,7-di-n-octyl-4,5-diaminochrysazin]
Order Parameter (S) [1]: 0.73
Solubility [2]: 13.0 wt %

CCCCCc1cc(NC)c2c(c1O)C(=O)c1c(O)c(CCCCC)cc(NC)c1C2=O [Example 6c]
Order Parameter (S) [1]: 0.66
Solubility [2]: 0.9 wt %

CCCCCCc1cc(N)c2c(c1O)C(=O)c1c(O)c(CCCCCC)cc(N)c1C2=O [Example 3, 2,7-Di-n-hexyl-4,5-diaminochrysazin]
Order Parameter (S) [1]: 0.76
Solubility [2]: 4.3 wt %

CCCCCCCc1cc(N)c2c(c1O)C(=O)c1c(N)cc(CCCCCCC)c(O)c1C2=O [n-hexyl, Comparative Dyes (Formula B), reference compound]
Solubility [2]: < 0.01 wt %
